Source: PMC7539012, “Hyperphosphorylated tau aggregation and cytotoxicity modulators screen identified prescription drugs linked to Alzheimer's disease and cognitive functions” (Scientific Reports, 2020)
Structures can show the parent of a compound that is named as a salt. Where two headings read alike, the source gives them in different places.

Test system: T1, 1N4R p-tau
T1 construct: made in house; host or cells: E. coli (PIMAX system)
Assay: p-tau aggregation modulator screen of 1280-compound library (ThS fluorescence net change over 16 h);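 also: 30 µM compound with 6 µM p-tau over 16 h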
Assay type: biochemical

[1] = p-tau aggregation modulator screen of the compound library, ThS fluorescence net change
[2] = 1280-compound library screen, ThS fluorescence net change over 16 h
[3] = p-tau aggregation modulator screen of 1280-compound library, ThS fluorescence net change
[4] = library screen, ThS fluorescence net change over 16 h with p-tau
[5] = 1280-compound library screen, […]

`CN1CCN(c2c(F)cc3c(=O)c(C(=O)O)cn(CCF)c3c2F)CC1` [Fleroxacin] showed a ThS net change [1] of 424.

Work on `CS(=O)(=O)c1ccc([C@@H](O)[C@@H](CF)NC(=O)C(Cl)Cl)cc1` [Florfenicol] yielded a ThS net change [1] of 433.

Compound `O=c1[nH]c(=O)n([C@H]2C[C@H](O)[C@@H](CO)O2)cc1F` [Floxuridine] has a ThS net change [2] of 388.

In the case of `COC(=O)Nc1nc2cc(C(=O)c3ccc(F)cc3)ccc2[nH]1` [Flubendazol], the ThS net change [3] is reported as 332.

With `Cc1onc(-c2c(F)cccc2Cl)c1C(=O)N[C@@H]1C(=O)N2[C@@H]1SC(C)(C)[C@@H]2C(=O)O` [Flucloxacillin sodium] the ThS net change [1] was 443.

In the case of `OC(Cn1cncn1)(Cn1cncn1)c1ccc(F)cc1F` [Fluconazole], the ThS net change [3] is reported as 374.

For `Nc1[nH]c(=O)ncc1F` [Flucytosine], the ThS net change [3] was 334.

`Nc1nc(F)nc2c1ncn2[C@@H]1O[C@H](CO)[C@@H](O)[C@@H]1O` [Fludarabine] gave a ThS net change [1] of 428.

With `CC(=O)OCC(=O)[C@@]1(O)CC[C@H]2[C@@H]3CCC4=CC(=O)CC[C@]4(C)[C@@]3(F)[C@@H](O)C[C@@]21C` [Fludrocortisone acetate] the ThS net change [2] was 380.

In the case of `O=C(O)c1ccccc1Nc1cccc(C(F)(F)F)c1` [Flufenamic acid], the ThS net change [1] is reported as 416.

`CC1CCc2cc(F)cc3c(=O)c(C(=O)O)cn1c23` (centres unmarked) [Flumequine] gave a ThS net change [4] of 303.

Compound `C[C@@H]1C[C@H]2[C@@H]3C[C@H](F)C4=CC(=O)C=C[C@]4(C)[C@@]3(F)[C@@H](O)C[C@]2(C)[C@@]1(O)C(=O)COC(=O)C(C)(C)C` [Flumethasone pivalate] has a ThS net change of 476.

In the case of `Fc1ccc(C(c2ccc(F)cc2)N2CCN(C/C=C/c3ccccc3)CC2)cc1` [Flunarizine dihydrochloride], the ThS net change [3] is reported as 370.

`CC1(C)O[C@@H]2C[C@H]3[C@@H]4C[C@H](F)C5=CC(=O)C=C[C@]5(C)[C@H]4[C@@H](O)C[C@]3(C)[C@]2(C(=O)CO)O1` [Flunisolide] gave a ThS net change [2] of 378.

`Cc1c(Nc2ncccc2C(=O)O)cccc1C(F)(F)F` [Flunixin meglumine] gave a ThS net change [3] of 354.

Compound `CC1(C)O[C@@H]2C[C@H]3[C@@H]4C[C@H](F)C5=CC(=O)C=C[C@]5(C)[C@@]4(F)[C@@H](O)C[C@]3(C)[C@]2(C(=O)CO)O1` [Fluocinolone acetonide] has a ThS net change [1] of 460.

`CC(=O)OCC(=O)[C@@]12OC(C)(C)O[C@@H]1C[C@H]1[C@@H]3C[C@H](F)C4=CC(=O)C=C[C@]4(C)[C@@]3(F)[C@@H](O)C[C@@]12C` [Fluocinonide] showed a ThS net change [2] of 387.

`CC(=O)[C@@]1(O)CC[C@H]2[C@@H]3C[C@H](C)C4=CC(=O)C=C[C@]4(C)[C@@]3(F)[C@@H](O)C[C@@]21C` [Fluorometholone] showed a ThS net change [2] of 383.

In the case of `CNCCC(Oc1ccc(C(F)(F)F)cc1)c1ccccc1` (centres unmarked) [Fluoxetine hydrochloride], the ThS net change [3] is reported as 370.

`OCCN1CCN(CCCN2c3ccccc3Sc3ccc(C(F)(F)F)cc32)CC1` [Fluphenazine dihydrochloride] showed a ThS net change [3] of 370.

In the case of `CC1(C)O[C@@H]2C[C@H]3[C@@H]4C[C@H](F)C5=CC(=O)CC[C@]5(C)[C@H]4[C@@H](O)C[C@]3(C)[C@]2(C(=O)CO)O1` [Flurandrenolide], the ThS net change [3] is reported as 377.

In the case of `CC(C(=O)O)c1ccc(-c2ccccc2)c(F)c1` (centres unmarked) [Flurbiprofen], the ThS net change [3] is reported as 377.

With `O=C1NCN(c2ccccc2)C12CCN(CCCC(c1ccc(F)cc1)c1ccc(F)cc1)CC2` [Fluspirilen] the ThS net change [4] was 258.

`CC(C)C(=O)Nc1ccc([N+](=O)[O-])c(C(F)(F)F)c1` [Flutamide] gave a ThS net change [3] of 331.

`CCC(=O)O[C@]1(C(=O)SCF)[C@H](C)C[C@H]2[C@@H]3C[C@H](F)C4=CC(=O)C=C[C@]4(C)[C@@]3(F)[C@@H](O)C[C@@]21C` [Fluticasone propionate] was tested, and the ThS net change [1] was 503.

For `CC(C)n1c(/C=C/C(O)CC(O)CC(=O)O)c(-c2ccc(F)cc2)c2ccccc21` (centres unmarked) [Fluvastatin sodium salt], the ThS net change [1] was 473.

`COCCCC/C(=N\OCCN)c1ccc(C(F)(F)F)cc1` [Fluvoxamine maleate] was tested, and the ThS net change was 420.

`Nc1nc(=O)c2nc(CNc3ccc(C(=O)N[C@@H](CCC(=O)O)C(=O)O)cc3)cnc2[nH]1` [Folic acid] showed a ThS net change [2] of 398.

`Nc1nc(=O)c2c([nH]1)NCC(CNc1ccc(C(=O)N[C@@H](CCC(=O)[O-])C(=O)[O-])cc1)N2C=O.[Ca+2]` (some centres unmarked) [Folinic acid calcium salt] was tested, and the ThS net change [3] was 359.

Work on `Cc1cn[nH]c1` [Fomepizole] yielded a ThS net change [3] of 344.

With `C[C@]12CCC(=O)C(O)=C1CC[C@@H]1[C@@H]2CC[C@]2(C)C(=O)CC[C@@H]12` [Formestane] the ThS net change was 413.

`O=C(O)c1ccccc1OP(=O)(O)O` [Fosfosal] gave a ThS net change [2] of 380.

In the case of `CCC(=O)O[C@@H](O[P@](=O)(CCCCc1ccccc1)CC(=O)N1C[C@H](C2CCCCC2)C[C@H]1C(=O)O)C(C)C` [Fosinopril], the ThS net change [1] is reported as 587.

In the case of `C[C@]12CC[C@@H]3c4ccc(O)cc4C[C@@H](CCCCCCCCC[S+]([O-])CCCC(F)(F)C(F)(F)F)[C@H]3[C@@H]1CC[C@@H]2O` (some centres unmarked) [Fulvestrant], the ThS net change [1] is reported as 442.

`Cl.O=C1OC(CN2CCOCC2)CN1/N=C/c1ccc([N+](=O)[O-])o1` (centres unmarked) [Furaltadone hydrochloride] showed a ThS net change [2] of 385.

In the case of `O=C1OCCN1/N=C/c1ccc([N+](=O)[O-])o1` [Furazolidone], the ThS net change [1] is reported as 415.

Work on `NS(=O)(=O)c1cc(C(=O)O)c(NCc2ccco2)cc1Cl` [Furosemide] yielded a ThS net change [3] of 360.

`C/C(=C(/CCO)SSCC1CCCO1)N(C=O)Cc1cnc(C)nc1N.Cl` (centres unmarked) [Fursultiamine Hydrochloride] was tested, and the ThS net change was 360.

For `CC(=O)O[C@H]1C[C@@]2(C)[C@@H](C[C@@H](O)[C@H]3[C@@]4(C)CC[C@@H](O)[C@@H](C)[C@@H]4CC[C@@]32C)/C1=C(\CCC=C(C)C)C(=O)O` [Fusidic acid sodium salt], the ThS net change [1] was 438.

Compound `Cl.Cl.Fc1ccc(C(OCCN2CCN(CCCc3ccccc3)CC2)c2ccc(F)cc2)cc1` [GBR 12909 dihydrochloride] has a ThS net change [1] of 515.

`NCC1(CC(=O)O)CCCCC1` [Gabapentin] was tested, and the ThS net change (p-tau aggregation modulator screen of 1280-compound library, […]) was 363.

With `CCOC(=O)c1ccc(OC(=O)CCCCCNC(=N)N)cc1.CS(=O)(=O)O` [Gabexate mesilate] the ThS net change [4] was 305.

In the case of `COc1ccc2c3c1O[C@H]1C[C@@H](O)C=C[C@@]31CCN(C)C2` [Galanthamine hydrobromide], the ThS net change is reported as 448.

Compound `CC[N+](CC)(CC)CCOc1cccc(OCC[N+](CC)(CC)CC)c1OCC[N+](CC)(CC)CC` [Gallamine triethiodide] has a ThS net change [3] of 363.

In the case of `Nc1nc(O)c2ncn(COC(CO)CO)c2n1` [Ganciclovir], the ThS net change [2] is reported as 404.

In the case of `COc1c(N2CCNC(C)C2)c(F)cc2c(=O)c(C(=O)O)cn(C3CC3)c12` (centres unmarked) [Gatifloxacin], the ThS net change [1] is reported as 426.

In the case of `COc1cc2ncnc(Nc3ccc(F)c(Cl)c3)c2cc1OCCCN1CCOCC1` [Gefitinib], the ThS net change [2] is reported as 395.

Compound `Nc1ccn([C@@H]2O[C@H](CO)[C@@H](O)C2(F)F)c(=O)n1` [Gemcitabine] has a ThS net change [1] of 470.

`Cc1ccc(C)c(OCCCC(C)(C)C(=O)O)c1` [Gemfibrozil] showed a ThS net change [3] of 353.

`C#C[C@]1(O)CC[C@H]2[C@@H]3CCC4=CC(=O)CCC4=C3C=C[C@@]21CC` [Gestrinone] was tested, and the ThS net change [5] was 397.

`Cl.O=C(OCC(O)CO)c1ccccc1Nc1ccnc2cc(Cl)ccc12` (centres unmarked) [Glafenine hydrochloride] gave a ThS net change [2] of 412.

With `COc1ccc(Cl)cc1C(=O)NCCc1ccc(S(=O)(=O)NC(=O)NC2CCCCC2)cc1` [Glibenclamide] the ThS net change [2] was 391.

In the case of `Cc1ccc(S(=O)(=O)NC(=O)NN2CC3CCCC3C2)cc1` (centres unmarked) [Gliclazide], the ThS net change [2] is reported as 379.

`CCC1=C(C)CN(C(=O)NCCc2ccc(S(=O)(=O)NC(=O)N[C@H]3CC[C@H](C)CC3)cc2)C1=O` [Glimepiride] gave a ThS net change [1] of 415.

For `Cc1cnc(C(=O)NCCc2ccc(S(=O)(=O)NC(=O)NC3CCCCC3)cc2)cn1` [Glipizide], the ThS net change [3] was 371.

`COc1ccc2c(c1)C(=O)N(CCc1ccc(S(=O)(=O)NC(=O)NC3CCCCC3)cc1)C(=O)C2(C)C` [Gliquidone] was tested, and the ThS net change [1] was 492.

In the case of `CCC1(c2ccc(N)cc2)CCC(=O)NC1=O` (centres unmarked) [Glutethimide, para-amino], the ThS net change is reported as 340.

In the case of `C[N+]1(C)CCC(OC(=O)C(O)(c2ccccc2)C2CCCC2)C1` (centres unmarked) [Glycopyrrolate], the ThS net change [2] is reported as 401.

For `CN1C2CCCC1CC(NC(=O)c1nn(C)c3ccccc13)C2` (centres unmarked) [Granisetron], the ThS net change [2] was 399.

`COC1=CC(=O)C[C@@H](C)[C@]12Oc1c(Cl)c(OC)cc(OC)c1C2=O` [Griseofulvin] showed a ThS net change [3] of 337.

`COc1ccccc1O` [Guaiacol] showed a ThS net change [2] of 397.

With `COc1ccccc1OCC(O)CO` (centres unmarked) [Guaifenesin] the ThS net change [3] was 376.

`N=C(N)N/N=C/c1c(Cl)cccc1Cl` [Guanabenz acetate] gave a ThS net change [2] of 405.

Compound `N=C(N)NCC1COC2(CCCCC2)O1.N=C(N)NCC1COC2(CCCCC2)O1.O=S(=O)(O)O` (centres unmarked) [Guanadrel sulfate] has a ThS net change [3] of 373.

Compound `N=C(N)NC(=O)Cc1c(Cl)cccc1Cl` [Guanfacine hydrochloride] has a ThS net change [1] of 417.

In the case of `CC1(C)O[C@@H]2C[C@H]3[C@@H]4CCC5=CC(=O)CC[C@]5(C)[C@@]4(F)[C@@H](O)C[C@]3(C)[C@]2(C(=O)CCl)O1` [Halcinonide], the ThS net change [2] is reported as 384.

For `CCCCN(CCCC)CCC(O)c1cc2c(Cl)cc(Cl)cc2c2cc(C(F)(F)F)ccc12` (centres unmarked) [Halofantrine hydrochloride], the ThS net change was 555.

Compound `O=C(CCCN1CCC(O)(c2ccc(Cl)cc2)CC1)c1ccc(F)cc1` [Haloperidol] has a ThS net change [4] of 319.

In the case of `Clc1cc(Cl)c(OCC#CI)cc1Cl` [Haloprogin], the ThS net change [3] is reported as 374.

Work on `C[N+]1(C)CCOC(O)(c2ccc(-c3ccc(C4(O)C[N+](C)(C)CCO4)cc3)cc2)C1.[Br-].[Br-]` (centres unmarked) [Hemicholinium bromide] yielded a ThS net change [5] of 379.

`CC(N)CCCC(C)(C)O` (centres unmarked) [Heptaminol hydrochloride] was tested, and the ThS net change [3] was 362.
